≈ marks a conversion by molar mass, not a printed value. Positions of bridges follow the written chain, without caps; N, C: chain ends. Non-standard residues stand in square brackets, D forms with d. Residues, ends and D or L forms follow the SMILES beside them. Chains are numbered I, II in the order given. βAla = NCCC(=O)O

In series [1] the test system is Klebsiella pneumoniae clinical isolates. The format is cell-based. The settings on record: clinical isolates. Here is the method: Minimum inhibitory concentrations (MICs) of SET-M33L were determined against 76 clinical isolates of Pseudomonas aeruginosa and 73 clinical isolates of Klebsiella pneumoniae. The isolates were selected on the basis of their resistance phenotypes and major antibiotic resistance determinants, including resistance to colistin and carriage of carbapenemase-encoding genes (Table 1 and supplemental Tables S1 and S2).
MIC values were determined against a large collection of clinical isolates. Most isolates were collected during routine susceptibility testing procedures at the Clinical Microbiology Unit of Careggi University Hospital in Florence, while specific isolates were selected according to their phenotype or genotype (e.g. carriage of carbapenemase-encoding genes, inclusion in epidemic bacterial clones, resistance to colistin) from a collection of isolates already available at Department of Medical Biotechnologies, University of Siena. Detailed features of each strain, including relevant resistance phenotypes and genotypes were reported in supplemental Tables S1 and S2. MICs were determined in triplicate using a standard microdilution assay according to the guidelines of the Clinical and Laboratory Standards Institute[34]. SET-M33L was assayed using concentrations in the range 0.09–11.2 μM (0.5–64 μg/mL); testing was performed using a bacterial inoculum of 5 × 10^4 CFU/well prepared in cation-supplemented Mueller-Hinton broth (MHB) (Becton Dickinson, Franklin Lakes, NJ, USA) in a final volume of 100 μl. Results were recorded after 18–20 h of incubation at 35 °C.

For series [2], the system named is K. pneumoniae strain KKBO-1. The format is cell-based, Klebsiella pneumoniae. The settings on record: K. pneumoniae KKBO-1. As for the experimental part: Tests were performed by plating cells on SET-M33L- or colistin-containing MHB.
For the next series, the system named is BALB/c mice. Description: Acute toxicity in mice, single i.v. dose. The format is in vivo, mouse. Here is the method: As preliminary toxicity evaluation we first compared the acute toxicity of SET-M33L and SET-M33L-PEG with that of colistin. Animals (10 BALB/c mice/group) were injected i.v. with different amounts of SET-M33L, SET-M33L-PEG or colistin, in single dose, in the range 5–40 mg/kg (Fig. 4), and were monitored for 4 days after inoculation of the peptide. […] At 40 mg/Kg SET-M33L and SET-M33L-PEG produced similar toxicity profiles with strong signs of toxicity and 90–100% mortality after 96 hours. Colistin produced strong signs of toxicity already at 10 mg/Kg: 50% mortality immediately after inoculation and 70% mortality after 24 hours. Colistin induced sudden death in 100% of mice at 20 and 40 mg/Kg.
Mice were treated by a single i.v. administration of different amounts (40, 20, 10, 5 mg/Kg) of SET-M33L, SET-M33L-PEG or colistin sulfate (Sigma-Aldrich, C4461). Signs of toxicity were checked four times a day by visual inspection. A toxicity score was assigned for the following signs: wiry coat and poor motility = mild signs; very wiry coat, abundant lachrymation and poor motility even under stimulation = manifest signs. Animals were monitored for 4 days after inoculation of the peptide. Mice were weighed every day from arrival to the last day of the experiment. Moribund animals were killed humanely to avoid unnecessary distress.

The term MIC denotes the lowest concentration that inhibits growth of the organism. A high value points to a less susceptible organism. As for `CC[C@H](C)[C@H](NC(=O)[C@H](CCCCN)NC(=O)[C@@H](N)CCCCN)C(=O)N[C@@H](CCCNC(=N)N)C(=O)N[C@H](C(=O)N[C@@H](CCCNC(=N)N)C(=O)N[C@@H](CC(C)C)C(=O)N[C@@H](CO)C(=O)N[C@@H](C)C(=O)NCCCC[C@H](NC(=O)[C@H](C)NC(=O)[C@H](CO)NC(=O)[C@H](CC(C)C)NC(=O)[C@H](CCCNC(=N)N)NC(=O)[C@@H](NC(=O)[C@H](CCCNC(=N)N)NC(=O)[C@@H](NC(=O)[C@H](CCCCN)NC(=O)[C@@H](N)CCCCN)[C@@H](C)CC)C(C)C)C(=O)NCCCC[C@H](NC(=O)[C@H](CCCCNC(=O)[C@H](C)NC(=O)[C@H](CO)NC(=O)[C@H](CC(C)C)NC(=O)[C@H](CCCNC(=N)N)NC(=O)[C@@H](NC(=O)[C@H](CCCNC(=N)N)NC(=O)[C@@H](NC(=O)[C@H](CCCCN)NC(=O)[C@@H](N)CCCCN)[C@@H](C)CC)C(C)C)NC(=O)[C@H](C)NC(=O)[C@H](CO)NC(=O)[C@H](CC(C)C)NC(=O)[C@H](CCCNC(=N)N)NC(=O)[C@@H](NC(=O)[C@H](CCCNC(=N)N)NC(=O)[C@@H](NC(=O)[C@H](CCCCN)NC(=O)[C@@H](N)CCCCN)[C@@H](C)CC)C(C)C)C(=O)NCCC(=O)O)C(C)C` [SET-M33L] (I: H-KKIRVRLSAKK[βAla]-OH / II: H-KKIRVRLSAK / III: H-KKIRVRLSA / IV: H-KKIRVRLSA; amide I:10-IV:C, I:11-II:C, II:10-III:C), the minimal inhibitory concentration (MIC) in series [1] is above 64 µg/mL; in series [2], 0.35 µM (≈ 1.64 µg/mL). Also, the mortality in the series with BALB/c mice (single i.v. dose 40 mg/Kg, after 96 hours) was 90–100%. Moreover, the “lethality and signs of toxicity” value in the series with BALB/c mice (single i.v. dose up to 20 mg/kg, monitored 4 days, 10 BALB/c mice/group) is “not lethal and no signs of toxicity were observed”.
